According to patent US5981519A, “Vinyl-pyrrolidinone cephalosporins” (Hoffman-La Roche Inc., priority 1996, dated 1999):
Values after ≈ are worked out from the molar mass of the structure shown.

Experiments:
S. aureus 743 (MRSA) = experiment: In vitro activity, minimum inhibitory concentration, agar dilution, S. aureus 743 (MRSA); format: cell-based; conditions: Staphylococcus aureus, Mueller Hinton agar, inoculum=10^4 CFU/spot
Method: (§1) Representative compounds (A and B, above) of the present invention were tested. In vitro activity was determined by minimum inhibitory concentration by the agar dilution method in Mueller Hinton agar, inoculum=10^4 CFU/spot.

S.aureus 6538 (MSSA) = experiment: In vitro activity, minimum inhibitory concentration, agar dilution, S. aureus 6538 (MSSA); format: cell-based; conditions: Staphylococcus aureus, Mueller Hinton agar, inoculum=10^4 CFU/spot
Method: as §1

MRSA = experiment: In vitro activity, MIC90 against MRSA (n = 38), agar dilution; format: cell-based; conditions: Staphylococcus aureus, MuellerHinton agar, inoculum: 10^5 CFU/spot
Method: as §1
*Agar dilution method on MuellerHinton agar, inoculum: 10^5 CFU/spot

P. aeruginosa ATCC27853 = experiment: In vitro activity, minimum inhibitory concentration, agar dilution, P. aeruginosa ATCC27853; format: cell-based; conditions: Pseudomonas aeruginosa, Mueller Hinton agar, inoculum=10^4 CFU/spot
Method: as §1

S. aureus 270A (MRSA) = experiment: In vitro activity, minimum inhibitory concentration, agar dilution, S. aureus 270A (MRSA); format: cell-based; conditions: Staphylococcus aureus, Mueller Hinton agar, inoculum=10^4 CFU/spot
Method: as §1

S. aureus 270 A (MRSA) = experiment: In vivo efficacy, sc abscess model in mice infected with S. aureus 270 A (MRSA); conditions: 10 mg/kg ip; for Median log CFU: 3 mice, untreated 6.92
Method: In vivo efficacy was determined with a sc abscess model in mice, infected with S. aureus 270 A (MRSA). The dose (ip) was 10 mg/kg. The median log of colony forming units (CFU) was determined.

Structure (SMILES)	MIC (S. aureus 743 (MRSA)) [µg/mL]	MIC (S.aureus 6538 (MSSA)) [µg/mL]	MIC90 (MRSA) [µg/mL]	MIC (P. aeruginosa ATCC27853) [µg/mL]	MIC (S. aureus 270A (MRSA)) [µg/mL]	activity compared with vancomycin (S. aureus 270 A (MRSA))	reduction in the number of CFUs as compared to the untreated control (S. aureus 270 A (MRSA))	Median log CFU (S. aureus 270 A (MRSA)) [log CFU]
Nc1nc(/C(=N/O)C(=O)N[C@@H]2C(=O)N3C(C(=O)O)=C(/C=C4\CCN([C@H]5CCNC5)C4=O)CS[C@H]23)ns1 [B, (6R, 7R)-7-[(Z)-2-(5-Amino-[1,2,4]thiadiazol-3-yl)-2-hydroxyimino-acetylamino]-8-oxo-3-[(E)-(S)-2-oxo-[1,3']bipyrrolidinyl-3-ylidenemethyl]-5-thia-1-aza-bicyclo[4.2.0]oct-2-ene-2-carboxylic acid]	2 (≈ 3.74 µM)	0.25 (≈ 0.468 µM)	4 (≈ 7.48 µM)	4 (≈ 7.48 µM)	4 (≈ 7.48 µM)	–	–	–
Nc1nc(/C(=N/O)C(=O)N[C@@H]2C(=O)N3C(C(=O)O)=C(/C=C4\CCN([C@@H]5CCNC5)C4=O)CS[C@H]23)ns1 [A, (6R, 7R)-7-[(Z)-2-(5-Amino-[1,2,4]thiadiazol-3-yl)-2-hydroxyimino-acetylamino]-8-oxo-3-[(E)-(R)-2-oxo-[1,3']bipyrrolidinyl-3-ylidenemethyl]-5-thia-1-aza-bicyclo[4.2.0]oct-2-ene-2-carboxylic acid]	2 (≈ 3.74 µM)	0.5 (≈ 0.935 µM)	4 (≈ 7.48 µM)	2 (≈ 3.74 µM)	2 (≈ 3.74 µM)	more active than vancomycin	more than hundred-fold reduction	4.72
CN[C@H](CC(C)C)C(=O)N[C@H]1C(=O)N[C@@H](CC(N)=O)C(=O)N[C@H]2C(=O)N[C@H]3C(=O)N[C@H](C(=O)N[C@H](C(=O)O)c4cc(O)cc(O)c4-c4cc3ccc4O)[C@H](O)c3ccc(c(Cl)c3)Oc3cc2cc(c3O[C@@H]2O[C@H](CO)[C@@H](O)[C@H](O)[C@H]2O[C@H]2C[C@](C)(N)[C@H](O)[C@H](C)O2)Oc2ccc(cc2Cl)[C@H]1O [Vancomycin, vancomycin, reference compound]	–	–	–	–	–	–	–	5.28
